Assay [1] deals with Plants comprising Brassica Event MON94100. Description: Volunteer control: greenhouse plant injury rate after synthetic auxin herbicide spray. The assay is classed as in vivo. Particulars: for Plant Injury Rates (%) After Herbicide Spray, MON94100: sprayed at V3 stage, 9 days after treatment, greenhouse. The protocol: (§1) Plants comprising Brassica Event MON94100 and non-transgenic plants of the same germplasm as a control were grown in a greenhouse in a randomized complete block design. Plants were sprayed at V3 stage with one of four synthetic auxin herbicides: dicamba (as XtendiMax®), 2,4-D amine 4 (dimethylamine salt of 2,4-dichlorophenoxyacetic acid), bromoxynil (3,5-dibromo-4-hydroxybenzonitrile as Buctril®), and MCPA amine (4-chloro-2-methylphenoxy acetic acid) in a randomized pattern. Plant injury rate was taken at 9 days after treatment.

Assay [2] deals with non-transgenic plants of the same germplasm. The assay is described as above. The assay is classed as in vivo, Brassica. Particulars: for Plant Injury Rates (%) After Herbicide Spray, Control: sprayed at V3 stage, 9 days after treatment, greenhouse. The protocol: as §1

The results in this text go back to US20240318196A1, “BRASSICA EVENT MON94100 AND METHODS OF USE THEREOF” (Monsanto Technology LLC, priority 2018, published 2024).

With `CNC.O=C(O)COc1ccc(Cl)cc1Cl` [2,4-D amine, dimethylamine salt of 2,4-dichlorophenoxyacetic acid], the “Plant Injury Rates (%) After Herbicide Spray, MON94100” value is given as 74.5% in assay [1] (1× rate) and 83.5% in assay [1] (2× rate). For the same compound, the “Plant Injury Rates (%) After Herbicide Spray, Control” value in assay [2] (1× rate) came out at 73.0%; in assay [2] (2× rate), 82.0%.
`Cc1cc(Cl)ccc1OCC(=O)O` [MCPA, 4-chloro-2-methylphenoxy acetic acid]: the “Plant Injury Rates (%) After Herbicide Spray, MON94100” value amounted to 73.0% in assay [1] (1× rate) and 86.5% in assay [1] (2× rate). Further, the “Plant Injury Rates (%) After Herbicide Spray, Control” value is given as 71.5% in assay [2] (1× rate) and 85.0% in assay [2] (2× rate).
On to `N#Cc1cc(Br)c(O)c(Br)c1` [bromoxynil, 3,5-dibromo-4-hydroxybenzonitrile], for which the figures for the “Plant Injury Rates (%) After Herbicide Spray, MON94100” value in assay [1] (1× rate) and in assay [1] (2× rate) were 80.5% and 90.3%, respectively. Moreover, the results for the “Plant Injury Rates (%) After Herbicide Spray, Control” value in assay [2] (1× rate) and in assay [2] (2× rate) were 83.3% and 90.6%, respectively.
For the compound `COc1c(Cl)ccc(Cl)c1C(=O)O` [dicamba, 3,6-dichloro-2-methoxybenzoic acid], in assay [1] (1× rate), the “Plant Injury Rates (%) After Herbicide Spray, MON94100” value came to 0.0%. Moreover, the Plant injury rate entry in assay [1] (commercial rate (1X), sprayed at V3, 9 days after treatment, plants comprising Brassica Event MON94100) was “no injury”; in assay [2] (commercial rate (1X), sprayed at V3, 9 days after treatment, control plants), 21.3%. In addition, the “Plant Injury Rates (%) After Herbicide Spray, Control” value in assay [2] (1× rate) is listed as 21.3%.
